Assays:
[1] = test system: human breast cancer cell lines; assay: Cell viability (Taxol/paclitaxel efficacy) across a panel of breast cancer cell lines versus endogenous Mena expression; type: cell-based; settings: 9 breast cancer cell lines, 72 h treatment
Excerpt: Endogenous levels of Mena in breast cancer cell lines correlate with their resistance to Taxol treatment. Initial experiments relied on ectopic expression in a single cell line, we examined a panel breast cancer cell lines with differing levels of endogenous Mena expression for sensitivity to Taxol. […] Essentially, low endogenous Mena correlates with low resistance/reduced viability in Taxol treated cells, while high endogenous Mena correlates with high resistance/viability in Taxol treated cells (FIG. 1F).
Cell viability assay. […] All measurements were repeated in triplicate.
(§1) MENA and MENA^INV are associated with increased survival during paclitaxel treatment in vitro. Whether endogenous MENA and MENA^INV expression levels were associated with paclitaxel resistance was examined. MENA and MENA^INV were determined to be widely expressed in all main breast cancer subtypes, as measured by mRNA from TCGA samples, as well as at the protein level by immunohistochemistry (FIGS. 28A, 28B, 28C), with slightly higher expression in patients with Her2+ breast cancer. […] Under the conditions we used, MENA11a co-migrates with the 80 kDa MENA, thus the intensity of the measured the 80 kDa MENA, detected with an antibody known to recognize all MENA isoforms, represents the total amount of 80 kDa MENA plus MENA11a in the cell lines that express both isoforms. […]

T47D cells = assay: Cell viability of T47D cells expressing ShCtrl or ShMENA after paclitaxel; type: cell-based, human; settings: T47D ShMENA vs ShCtrl, 72 hours
Procedure: Cell Culture. MDA-MB-231 cells were purchased directly from the ATCC in June 2012, where cell lines are authenticated by short tandem repeat profiling. These cells were not reauthenticated by our lab and were cultured in DMEM with 10% FBS (Hyclone). Cell line generation and FACS were performed as previously described (32). […] SUM159 cells were obtained from Joan Brugge's lab at Harvard Medical School (January 2011) and were not reauthenticated in our lab. SUM159 cells were cultured according to the ATCC protocols. T47D cells were purchased at ATCC, where cell lines are authenticated by short tandem repeat profiling. They were cultured according to the manufacturer's protocol, and not reauthenticated in our lab. […]
as §1, with “Whether endogenous MENA and MENA^INV expression levels were associated with paclitaxel resistance was examined.” left out

[2] = test system: MDA-MB-231 xenograft tumors; assay: Multiphoton intravital imaging of motile tumor cells; type: in vivo, mouse
Procedure: Intravital imaging. Intravital multiphoton imaging was performed as described previously (Oudin M J, et al. Tumor cell-driven extracellular matrix remodeling enables haptotaxis during metastatic progression. Cancer Discov. 2016; Available from: www.ncbi.nlm.nih.gov/pubmed/26811325) using a 25×1.05 NA water immersion objective with correction lens. After exposing the tumor with a skin flap surgery, 30 minute movies were captured. The number of motile cells in each field of view were count in ten 30 minute time-lapse movies using ImageJ. Motile cells were cells who show any displacement of the nucleus and cell protrusion activity. Data were pooled from 2-4 mice per tumor group, with 4-10 fields imaged per mouse.
MENA and MENA^INV drive increased cell motility and metastasis during tumor progression. Therefore, whether MENA isoform expression impacts cell migration and dissemination after paclitaxel treatment was examined.

MDA-MB-231 cells = assay: Proliferation assay (cell count) with combinations of paclitaxel and MEKi; type: cell-based, human; settings: 231-MENA and 231-MENA^INV cells

SMILES: CC(=O)O[C@H]1C(=O)[C@@]2(C)[C@H]([C@H](OC(=O)c3ccccc3)[C@]3(O)C[C@H](OC(=O)[C@H](O)[C@@H](NC(=O)c4ccccc4)c4ccccc4)C(C)=C1C3(C)C)[C@]1(OC(C)=O)CO[C@@H]1C[C@@H]2O [paclitaxel]
- correlation between drug efficacy (cell survival) and endogenous Mena expression [1]: significant inverse correlation
- correlation between drug efficacy (cell survival) and endogenous Mena expression ([1]; listed as Taxol): highly significant anti-correlation
- sensitivity to paclitaxel after reducing all MENA isoform levels (T47D cells): more sensitive to paclitaxel
- number of cells moving within tumors ([2]; 231-Control tumors): significantly reduced
- motility of tumor cells in vivo ([2]; 231-MENA and 231-MENA^INV tumors): not affected
- concentrations needed to obtain high levels of cell death relative to 231-Control cells (MDA-MB-231 cells): higher concentrations of each drug were needed

From patent US20170168056A1, “METHODS AND COMPOSITIONS FOR DETECTING AND MODULATING CANCER CELLS” (Massachusetts Institute of Technology, priority 2015, published 2017)
